Source: paper PMC3650558, “A Yeast Chemical Genetic Screen Identifies Inhibitors of Human Telomerase” (Chemistry & Biology, 2013)
“Also recorded” adds a separate entry of the source.

Key:
[1] = system: W303-1a cells expressing Cdc13-hTERT-FLAG + hTR (active human telomerase); assay: Yeast growth rescue screen (time to reach OD595 of 0.62 relative to DMSO); type: cell-based, S. cerevisiae; conditions: for Z Score: z = (x − μ)/σ of normalized time difference over all compounds in the bioactive library
Method: These 678 compounds were selected from a 50,000 member Maybridge library based upon a spectrum of growth inhibitory bioactivity in a drug pump-deficient yeast strain ([Ishizaki et al., 2010]). […] In each 96-well assay plate, growth of the query strain in the presence of compound (20 μM), beginning at the onset of the experimental growth phase (i.e., time course 2, from 43 hr onward), was normalized against DMSO treatment (Figures 2C and 2D; Figures S2D and S2E).
To conduct the HTS (Figure 2A), 98 μl (3 × 10^5 cells per milliliter) was dispensed into 96-well clear flat-bottomed microplates (Corning Costar) using a Biomek FX (Beckman Coulter). A small molecule bioactive library of 678 compounds was utilized for the screen, consisting of compounds selected from the Maybridge collection (Thermo Fisher Scientific). […] DMSO at 2% (v/v) and 20 μM cycloheximide (Sigma) final concentration were added as controls to each assay plate, into alternate wells in columns 1 and 12 using the Span 8 module of the Biomek FX. Nine plates were analyzed, 80 compounds per plate, with 16 wells for controls. After compound addition, the plates were sealed and followed for time course 1 (up to 39 hr) on a Sunrise plate reader (Tecan) at absorbance 595 nm, maintained at 30°C and shaking at 564 rpm. After time course 1, cells in assay plates were diluted to 3 × 10^5 cells per milliliter in fresh media containing galactose using the Biomek FX. The plates were preincubated in galactose-containing media at 30°C for 3 hr (to allow a period of recovery from the stationary phase in the absence of compound), 2 μl of each compound or control was added to plates as described earlier, returned to the plate readers, and followed for time course 2 (up to 86 hr), for a total of ∼128 elapsed hours.
Growth curves were analyzed using a growth curve analysis tool implemented in R. After smoothing of growth curves, the time required for cells induced with human telomerase to reach an OD595 of 0.62 in the presence of each compound during time course 2 was derived using a data-based approach ([Warringer and Blomberg, 2003]). The time to reach an OD595 of 0.62 for each compound was normalized to the average DMSO value from each assay plate (to arrive at a normalized value, x, for each compound) and used to generate heatmaps as shown in Figure 2C. Z scores were calculated based on the equation: z = (x − μ)/σ, where μ is the mean time difference for all compounds in the bioactive library and σ is the SD for all compounds in the bioactive library.

W303-1a control strains = assay: Growth of control yeast strains; type: cell-based, S. cerevisiae; conditions: W303-1a cells alone; 500, 150, 50, 10 or 1 μM
[2] = target: purified human telomerase; parameters: method as in Damm et al., 2001; Pascolo et al., 2002; conditions: human telomerase in vitro; ref Damm et al., 2001; Pascolo et al., 2002; cited from earlier work
pdr1DBD-cyc8 strain = assay: Growth of hyperpermeable yeast strain; conditions: 0.03-1 μM, irrespective of human telomerase expression status
[3] = target: T1, purified recombinant human telomerase (Homo sapiens, UniProt O14746); assay: Telomerase repeat amplification protocol (TRAP) assay, purified enzyme; type: biochemical; conditions: 200, 100, 20, 10 or 2 μM; 15 min preincubation
T1 construct: made in house
T1 sequence (O14746 whole entry): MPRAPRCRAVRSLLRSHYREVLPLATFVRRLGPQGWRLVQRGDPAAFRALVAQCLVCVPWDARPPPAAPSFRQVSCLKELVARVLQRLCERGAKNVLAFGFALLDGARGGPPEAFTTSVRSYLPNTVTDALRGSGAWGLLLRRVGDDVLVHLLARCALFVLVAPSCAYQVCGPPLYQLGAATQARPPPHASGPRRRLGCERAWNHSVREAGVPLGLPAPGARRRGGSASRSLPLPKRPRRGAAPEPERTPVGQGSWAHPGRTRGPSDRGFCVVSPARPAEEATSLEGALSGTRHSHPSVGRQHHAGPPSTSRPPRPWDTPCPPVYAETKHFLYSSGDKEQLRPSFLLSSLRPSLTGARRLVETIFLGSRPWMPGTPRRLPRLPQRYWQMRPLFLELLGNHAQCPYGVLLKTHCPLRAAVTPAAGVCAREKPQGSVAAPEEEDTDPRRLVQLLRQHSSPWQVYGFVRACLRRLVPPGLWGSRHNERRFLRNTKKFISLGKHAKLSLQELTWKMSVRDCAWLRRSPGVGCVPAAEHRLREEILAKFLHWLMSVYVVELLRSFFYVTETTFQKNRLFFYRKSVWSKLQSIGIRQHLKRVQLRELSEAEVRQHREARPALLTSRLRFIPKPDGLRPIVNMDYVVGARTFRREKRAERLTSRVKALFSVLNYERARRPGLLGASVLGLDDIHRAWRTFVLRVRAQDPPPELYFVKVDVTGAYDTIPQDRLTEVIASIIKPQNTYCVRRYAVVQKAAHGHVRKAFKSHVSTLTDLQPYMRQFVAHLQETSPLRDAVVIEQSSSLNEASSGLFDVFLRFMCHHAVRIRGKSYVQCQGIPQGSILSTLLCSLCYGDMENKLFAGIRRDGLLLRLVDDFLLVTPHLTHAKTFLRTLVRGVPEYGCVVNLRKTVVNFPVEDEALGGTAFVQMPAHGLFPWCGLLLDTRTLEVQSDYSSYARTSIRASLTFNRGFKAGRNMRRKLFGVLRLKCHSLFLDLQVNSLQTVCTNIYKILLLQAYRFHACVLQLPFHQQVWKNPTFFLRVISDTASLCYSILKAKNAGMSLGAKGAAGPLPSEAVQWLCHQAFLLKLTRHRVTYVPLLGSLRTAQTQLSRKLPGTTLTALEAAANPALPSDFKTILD
Method: Figure 3 Assessment of Human Telomerase Inhibition In Vitro (A) Chemical structures of BIBR1532 and hit compounds SEW05920, SPB03924, and CD11359. (B) Representative gel of the telomerase repeat addition protocol (TRAPeze, Millipore) after addition of RJC00417, SEW05920, SPB03922, and RH00646 to recombinant human telomerase purified in vitro ([Beattie et al., 1998]; [Oulton and Harrington, 2004]) (n = 3). Lanes 1–5, treatment with 200, 100, 20, 10, or 2 μM RJC00417; lanes 6–10, treatment with 200, 100, 20, 10, or 2 μM SEW05920; lanes 11–15, treatment with 200, 100, 20, 10, or 2 μM SPB03922; lanes 16–20, treatment with 200, 100, 20, 10, or 2 μM RH00646; lane 21, treatment with 2% v/v DMSO; lane 22, pretreatment with ribonuclease A. IC; internal PCR control (36 base pairs [bp]). (C) Representative gel of the relative telomerase activity (RTA) by ELISA-TRAP (TeloTAGGG Telomerase PCR ELISA-PLUS, Roche Diagnostics) of purified human telomerase upon incubation with BIBR1532 (lanes 1–4), SEW05920 (lanes 5–8), SPB03924 (lanes 11–14), CD11359 (lanes 15–18) (concentration indicated in micromolar), 2% v/v DMSO (lane 9), or heat (lane 10). IC; internal PCR control (216 bp). (D) Levels of RTA (%) after normalization to a 216 bp internal control, as shown in (C). Error bars indicate SD, n = 3. For synthesis of BIBR1532, see Figure S2.
As a control, we observed no inhibition of the Taq polymerase used for amplification of telomerase extension products in the TRAP (data not shown). […]
From the high-throughput analysis, 51 compounds with a neutral effect or that rescued the growth of strains expressing active human telomerase (relative to DMSO) were picked from the master HTS plates and re-analyzed (Figure 2C, and data not shown). […]
(§1) Telomerase activity was assessed using the Telomere Repeat Amplification Protocol (TRAPeze, Millipore) or ELISA-TRAP (TeloTAGGG Telomerase PCR ELISA-PLUS, Roche Diagnostics) following manufacturers’ instructions. […]

[4] = target: T2, telomerase activity in crude HeLa cell extracts (Homo sapiens, UniProt O14746); assay: TRAP assay in crude HeLa cell extracts; type: biochemical
T2 construct: telomerase activity in crude HeLa cell extracts; endogenous in cells; host or cells: HeLa
T2 sequence (O14746 whole entry): as above
T2 sequence (O60832 whole entry partner): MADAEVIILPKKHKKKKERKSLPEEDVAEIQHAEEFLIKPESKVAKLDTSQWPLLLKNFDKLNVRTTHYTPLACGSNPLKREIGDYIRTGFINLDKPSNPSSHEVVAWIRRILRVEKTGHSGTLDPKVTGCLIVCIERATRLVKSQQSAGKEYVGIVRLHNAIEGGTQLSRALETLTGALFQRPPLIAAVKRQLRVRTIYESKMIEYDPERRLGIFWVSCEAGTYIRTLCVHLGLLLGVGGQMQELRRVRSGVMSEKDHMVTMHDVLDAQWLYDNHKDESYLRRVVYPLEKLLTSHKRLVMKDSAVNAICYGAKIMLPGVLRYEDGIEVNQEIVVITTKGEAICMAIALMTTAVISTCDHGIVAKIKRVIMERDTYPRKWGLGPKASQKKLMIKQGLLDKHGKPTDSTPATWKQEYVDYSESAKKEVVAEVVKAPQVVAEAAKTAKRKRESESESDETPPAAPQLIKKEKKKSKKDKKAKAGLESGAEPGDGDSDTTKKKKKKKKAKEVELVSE
T2 sequence (Q9NPE3 whole entry partner): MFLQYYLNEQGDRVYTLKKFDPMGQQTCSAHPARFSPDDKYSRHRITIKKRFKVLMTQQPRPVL
T2 sequence (Q9NX24 whole entry partner): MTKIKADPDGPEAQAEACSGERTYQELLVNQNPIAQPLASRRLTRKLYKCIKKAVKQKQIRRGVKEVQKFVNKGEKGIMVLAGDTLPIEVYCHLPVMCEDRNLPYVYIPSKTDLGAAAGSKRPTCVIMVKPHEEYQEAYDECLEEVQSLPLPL
T2 sequence (Q9NY12 whole entry partner): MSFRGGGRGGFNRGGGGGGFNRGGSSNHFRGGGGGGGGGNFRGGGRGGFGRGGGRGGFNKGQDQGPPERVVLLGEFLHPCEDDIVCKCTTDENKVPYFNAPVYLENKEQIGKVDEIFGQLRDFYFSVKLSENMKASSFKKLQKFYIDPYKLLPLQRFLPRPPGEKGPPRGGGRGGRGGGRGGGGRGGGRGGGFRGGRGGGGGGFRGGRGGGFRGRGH
T2 sequence (Q9BUR4 whole entry partner): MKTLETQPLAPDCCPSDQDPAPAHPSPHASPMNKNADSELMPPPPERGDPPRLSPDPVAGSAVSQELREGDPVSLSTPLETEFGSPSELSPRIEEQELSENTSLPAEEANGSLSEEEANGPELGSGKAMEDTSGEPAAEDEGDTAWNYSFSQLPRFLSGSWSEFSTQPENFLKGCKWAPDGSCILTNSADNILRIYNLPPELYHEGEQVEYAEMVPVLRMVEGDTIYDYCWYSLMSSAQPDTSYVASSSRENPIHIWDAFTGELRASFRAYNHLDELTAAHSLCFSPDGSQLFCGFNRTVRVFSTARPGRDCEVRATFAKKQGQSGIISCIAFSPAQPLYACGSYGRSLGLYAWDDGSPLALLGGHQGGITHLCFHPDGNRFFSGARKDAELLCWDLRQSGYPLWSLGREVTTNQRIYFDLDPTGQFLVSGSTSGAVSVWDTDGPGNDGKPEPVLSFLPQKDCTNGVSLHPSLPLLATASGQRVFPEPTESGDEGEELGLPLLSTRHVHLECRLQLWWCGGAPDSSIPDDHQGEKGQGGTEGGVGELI
Method: As a control, we observed no inhibition of the Taq polymerase used for amplification of telomerase extension products in the TRAP (data not shown). In addition, as negative controls, two other compounds that were not identified as hits (SPB03922 and RH00646) were tested and confirmed to exert no effect upon telomerase activity in vitro (Figure 3B). Using a semiquantitative assay for the detection of telomerase elongation products (ELISA-TRAP) the in vitro half maximal inhibitory concentration (IC50) values of the compounds fell between 1 and 6.5 μM (Figures 3C and 3D). Similar IC50 values were also observed against purified recombinant murine telomerase (data not shown). These values are higher than that of BIBR1532 (IC50 = 0.1 μM) ([Damm et al., 2001]; [Pascolo et al., 2002]) but within a concentration range typical of first hits from commercial libraries. SEW05920, SPB03924, and CD11359 are heteroaromatic small molecules that differ structurally from BIBR1532 (Figures 3A and S2F).
Supplemental Experimental Procedures
Follow-up analysis of compounds identified in HTS
From the high-throughput analysis, 51 compounds with a neutral effect or that rescued the growth of strains expressing active human telomerase (relative to DMSO) were picked from the master HTS plates and re-analyzed (Figure 2C, and data not shown). These compounds were tested on a control strain, W303-1a expressing hTR and Cdc13-hTERT lacking the Cdc13 DBD, and 7 compounds were excluded from further analysis because they elicited a non-specific growth delay of the control strain. The remaining 44 compounds were subjected to secondary screens against the query strain expressing active human telomerase (n=2). Based on these results, twenty-eight compounds were purchased for further verification against the control and […]
as §1

SMILES | effect upon growth of yeast expressing human telomerase ([1]; 500, 150, 50, 10 or 1 μM) | effect upon growth of control strains (W303-1a control strains) | IC50 [2] | toxicity in hyperpermeable strain pdr1DBD-cyc8 (pdr1DBD-cyc8 strain) | Z Score [1] | inhibition of purified recombinant human telomerase (TRAP) [3] | inhibition of telomerase activity in crude HeLa cell extracts (TRAP) [4] | growth recovery in follow-up screens ([1]; follow-up subscreens, re-plated from master HTS plate and repurchased compound) | growth recovery in the initial HTS ([1]; initial HTS, 20 μM) | Time (hr) Difference at an OD595 of 0.62 Relative to DMSO ([1]; compound 20 μM, time course 2, growth rescue of strain expressing active human telomerase)
C/C(=C\C(=O)Nc1ccccc1C(=O)O)c1ccc2ccccc2c1 [BIBR1532, 2-[(E)-3-naphthalen-2-yl-but-2-enoylamino]-benzoic acid] | had no effect | had no effect | 100 nM | toxic; also recorded: cytotoxic across most concentrations |  |  |  |  |  | 
N=C(N)Nc1nc(-c2cc(Cl)sc2Cl)cs1 [CD11359] |  |  |  |  | 1.7 | dose-dependent inhibition | dose-dependent inhibition |  |  | 
Cc1ccc(S(=O)(=O)NC(=O)Nc2ccc(Sc3ccccc3)nc2Sc2ccccc2)cc1 [SEW05920] |  |  |  |  | 1.7 | inhibited telomerase activity in vitro; also recorded: dose-dependent inhibition | dose-dependent inhibition | ~8 h | did not exhibit significant growth recovery | 
Cc1cc(C(=O)O/N=C(\N)CSc2ncccc2C(F)(F)F)no1 [SPB03924] |  |  |  |  | 2.3 | dose-dependent inhibition | dose-dependent inhibition |  |  | 12 h
